Assay results: US6730659B2, “Antimicrobial peptides and methods of use thereof” (The Board of Regents of the University of Oklahoma, priority 1999, dated 2004)
Entries after “also recorded” stand apart in the source; their conditions may differ. Read-outs that look alike come from different tables or passages of the source. Positions of bridges follow the written chain, without caps; N, C: chain ends. Residues, ends and D or L forms follow the SMILES beside them. No end group written: not given here. *: point of attachment. Acm = CC(=O)NC*

Columns and labels:
[1] = U.S. Pat. Nos. 5,607,916 and 5,458,874; cited from earlier work
[2] = tested on: S. typhimurium LT2; test: survival of mice inoculated with live Salmonella typhimurium LT2; assay type: in vivo, mice (female, Balb/c); settings: for rescue from lethal infection in words: oral and intraperitoneal routes; for survival rate: 100 μg
Procedure: Mice (female, Balb/c, 6-8 weeks) were administered a dose of live S. typhimurium LT2 (8×10^8/mouse) via the oral route. Without treatment, this dose of live organisms led to the death of all animals between day 3 and 4 (i.e. LD100 at day 3 or 4). Following challenge with Salmonella, peptide 20-44 (0-150 μg/mouse) was administered via the intravenous; oral, and intraperitoneal routes. […] At day 6 post infection, 100% of animals given a dose of 125 μg of peptide 20-44 intravenously survived. 80% of mice given 50, 100 and 150 μg of peptide survived through to day 5. Data shown in FIG. 10 strongly indicate that peptide 20-44 may also be given via the oral route since 80% survival rates were obtained with 100 μg of peptide. This is evidence that the peptide is not destroyed by the acid environment and enzymes of the stomach and indicates an alternative route of administration to the intravenous route discussed in FIG. 9. The third route of administration of peptide 20-44 was the intraperitoneal route. This is often the method of choice in a veterinary situation.

[3] = intravenous infusion 3.0 mg/kg with E. coli LPS 250 μg/kg over 30 min; cited from earlier work
[4] = cited from earlier work
[5] = tested on: Staphylococcus aureus; settings: cited from earlier work
[6] = tested on: S. typhimurium SH9178; test: in vitro bactericidal activity, S. typhimurium SH9178; assay type: cell-based, Salmonella typhimurium
Procedure: (§1) Methods used herein are those previously described in U.S. Pat. Nos. 5,607,916; 5,627,262; and 5,650,392.
(§2) Peptides 20-44, 20-44ser26 and 20-44ser42, were assayed for bactericidal activity using S. typhimurium SH9178 as the test organism. […] Peptide 20-44ser42 killed 97.8% of bacteria at 75 μM, and peptide 20-44ser26 killed 99.6% of bacteria at 75 μM. Importantly, at concentrations of only 12.5 μM, peptide 20-44ser26 killed 70.4% of organisms and peptide 20-44ser42 killed 66.6% of bacteria. We tested these peptides with the smooth, more virulent LT2 strain of S. typhimurium, (FIG. 3). […] Indeed, the two serine analogs, 20-44ser26 and 20-44ser42 were able to kill 73% and 65% of bacteria at 12.5 μM, the lowest concentration of peptide tested. These levels of mortality were very much greater than those obtained using peptide 20-44. Two other organisms, Staphylococcus aureus ATCC strain 25923 and Enterococcus faecalis (a clinical isolate), both of which are gram-positive organisms, were also tested against 20-44ser26 and 20-44ser42.

[7] = tested on: Salmonella typhimurium; settings: cited from earlier work
[8] = tested on: Pseudomonas aeruginosa; settings: cited from earlier work
[9] = tested on: Escherichia coli; settings: cited from earlier work
[10] = tested on: Enterococcus faecalis; settings: cited from earlier work
[11] = LPS binding in the in vitro limulus amebocyte lysate (LAL) assay; settings: FIGS. 6-7
Procedure: We tested the ability of the peptide analogs of the present invention to bind LPS in the in vitro limulus amebocyte lysate (LAL) assay and compared them with the parent peptide, 20-44. […] Similarly, peptide 20-44ser42 was also capable of neutralizing the effect of monophosphoryl lipid A at concentrations greater than 500 μg/ml (FIG. 7).

[12] = assay type: physicochemical
Text: In addition to the Increased potency of peptide 20-44ser42 and 20-44ser26, these two peptides have technical advantages over the parent peptide 20-44. The two new analogs are easier to synthesize and purify because the internal disulfide bonding between the two cysteine residues can no longer occur.

[13] = tested on: LT2 strain of S. typhimurium; assay type: cell-based; settings: 12.5 μM, lowest concentration tested, FIG. 3
Procedure: as §1, §2

[14] = 75 μM (200 μg/ml), highest concentration tested, FIG. 2

For “20-44ACM: sequence of 20-44 with both cysteines permanently protected with an ACM (boc-cys-acetamidomethyl) side group; control peptide (NQGRHFC(Acm)GGALIHARFVMTAASC(Acm)FQ; listed as Homo Sapiens) [Peptide 20-44ACM]”, the “antibiotic / antimicrobial activity in words” value [1] is given as “ineffective antibiotics” and the “rescue from lethal infection in words” value ([2]; intravenous) is given as “succumbed to infection very rapidly; also recorded: no activity”.
In the case of “20-44ser26/42: homologous to peptide 20-44, serines substituted for cysteines at positions 26 and 42 (NQGRHFSGGALIHARFVMTAASSFQ; listed as Homo Sapiens)”, the “antibiotic / antimicrobial activity in words” value [1] is given as “ineffective antibiotics”.
In the case of CC[C@H](C)[C@@H]1NC(=O)[C@H](CC(C)C)NC(=O)[C@H](C)NC(=O)CNC(=O)CNC(=O)[C@@H](NC(=O)[C@H](Cc2ccccc2)NC(=O)[C@H](Cc2c[nH]cn2)NC(=O)[C@H](CCCNC(=N)N)NC(=O)CNC(=O)[C@H](CCC(N)=O)NC(=O)[C@@H](N)CC(N)=O)CSSC[C@@H](C(=O)N[C@@H](Cc2ccccc2)C(=O)N[C@@H](CCC(N)=O)C(=O)O)NC(=O)[C@H](CO)NC(=O)[C@H](C)NC(=O)[C@H](C)NC(=O)[C@H]([C@@H](C)O)NC(=O)[C@H](CCSC)NC(=O)[C@H](C(C)C)NC(=O)[C@H](Cc2ccccc2)NC(=O)[C@H](CCCNC(=N)N)NC(=O)[C@H](C)NC(=O)[C@H](Cc2c[nH]cn2)NC1=O [Peptide 20-44] (H-NQGRHFCGGALIHARFVMTAASCFQ-OH; disulfide 7-23; N-terminus and C-terminus assumed), the “effect on LPS-induced circulatory shock in words” value [3] is given as “prevented LPS-induced hyperdynamic and hypodynamic circulatory shock”, the 7-day survival rate ([4]; 0.2 mg/kg intravenously after lethal dose of LPS) is given as 30% and the 7-day survival rate ([4]; 1.0 mg/kg intravenously after lethal dose of LPS) is given as 50%. The 7-day survival rate ([4]; 5.0 mg/kg intravenously after lethal dose of LPS) was 80%, the “endotoxin-induced increase in circulating TNFα” value ([4]; 5.0 mg/kg, sensitized rats) was “significantly inhibited” and the activity in words [5] was “active”. For the same compound, the “bactericidal activity in words” value ([6]; FIG. 2) was “significant antibiotic activity”, the “in vitro bactericidal activity in words” value [7] was “strong in vitro bactericidal activity” and the “in vitro bactericidal activity in words” value [8] was “strong in vitro bactericidal activity”. For the same compound, the “in vitro bactericidal activity in words” value [9] was “strong in vitro bactericidal activity”, the activity in words [10] was “active” and the “binding of LPS / monophosphoryl lipid A in words” value [11] was “bound LPS”. The mice survived ([2]; 50, 100 and 150 μg (intravenous by context, FIG. 9), through to day 5) was 80%, the survival rate ([2]; intraperitoneal, day 5 post infection, FIG. 11) was 80% and the survival rate ([2]; intraperitoneal, day 6 post infection, FIG. 11) was 60%. For the same compound, the animals survived ([2]; intravenous, 125 μg, day 6 post infection, FIG. 9) was 100%, the “rescue from lethal infection in words” value ([2]; intravenous) was “can rescue animals from lethal infection” and the survival rate ([2]; oral, FIG. 10) was 80%.
For “NQGRHFCGGALIHARFVMTAASSFQ [Peptide 20-44ser42]”, the bacteria killed ([6]; 12.5 μM) was 66.6%, the bacteria killed [6, 14] was 97.8% and the “solubility compared with the 20-44 peptide” value [12] was “greater than the 20-44 peptide”. It also gave a bacteria killed [13] of 65%.
With “NQGRHFSGGALIHARFVMTAASCFQ [Peptide 20-44ser26]” the bacteria killed ([6]; 12.5 μM) was 70.4%, the bacteria killed [6, 14] was 99.6% and the “solubility compared with the 20-44 peptide” value [12] was “greater than the 20-44 peptide”. It also gave a bacteria killed [13] of 73%.
